The values that follow come from patent US11839212B2, “Synergistic pesticidal compositions and methods for delivery of insecticidal active ingredients” (0903608 B.C. Ltd., priority 2018, dated 2023).

Where two headings read alike, the source gives them in different places.

Assay [1] deals with Trichoplusia ni. The assay can be described thus: In-vitro insecticidal efficacy on artificial diet, spinosad (Entrust® SC) with aliphatic acids (Abbott efficacy, Colby synergy factor). In kind it is in vivo. Particulars: Entrust SC 0.034 ppm ([…] spinosad); aliphatic acid (salt) 500 ppm; after 5 days; Abbott-corrected. As to the method:
An artificial diet suitable for Trichoplusia ni (cabbage looper caterpillar) was prepared from a commercially available general purpose lepidoptera artificial diet premix (General Purpose Lepidoptera Diet available from Frontier Scientific Services, Newark, DE) mixed in agar media and then heated to liquify the media. The liquid artificial diet media was then used to fill each well of a 96-well treatment plate with 200 uL of artificial diet media, which was allowed to solidify at room temperature and stored at approximately 4 C.
A 20 uL treatment sample of each treatment formulation was then placed on top of the solidified artificial diet media in each well of the 96 well plates and allowed to dry overnight. The following day, one neonate Trichoplusia ni (cabbage looper) larva (hatched from eggs obtained from the Natural Resource Canada insect research facility in Sault-Ste-Marie, ON, Canada) was added to each well of the plate, and their mortality rate was evaluated after 5 days, to determine the insecticidal efficacy of the Entrust® SC treatment alone, each exemplary unsaturated or saturated aliphatic acid (and salt) alone, and each combination of spinosad (as Entrust® SC) and unsaturated or saturated aliphatic acid (and salt). Each experiment contained 3 replicates.
(§1) While for SF<1, antagonism is present and for SF=1, the efficacy of the compounds is merely additive.

The test system of assay [2] is Botrytis cinerea. The assay can be described thus: Synergistic Growth Inhibition Assay (MIC and FIC index, 96-well, resazurin). It counts as cell-based. Particulars: Botrytis cinerea, 48 h, Compound B alone, 48 hours incubation, read-out: MIC (B). Put shortly:
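Checkerboard microdilution of pesticidal active ingredient combined with C6–C10 (or C11/C12) aliphatic acid against Botrytis cinerea, with growth read by resazurin colour change plus visual check. FIC index = sum of each agent's concentration in the inhibiting well divided by its MIC alone; 1 denotes additivity.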

Assay [3] relates to Trichoplusia ni. The assay can be described thus: In-planta insecticidal efficacy on sprayed cabbage plants, spinosad (Entrust® SC) with octanoic acid (Abbott efficacy, Colby synergy factor). In kind it is in vivo. Particulars: octanoic acid alone at 100 ppm; Abbott-corrected. As to the method:
Green cabbage plants (Brassica oleracea var. capitate, Danish Ballhead cultivar) were grown from seed (available from West Coast Seeds, Delta, BC, Canada) in potting soil for 4-6 weeks in a pest-free indoor growing environment. At between 4-6 weeks of age, each cabbage plant was sprayed with 20 mL of treatment solution using a pressurized CO2 sprayer, and allowed to dry.
as §1

The test system of assay [4] is Fusarium oxysporum. The assay can be described thus: Synergistic Growth Inhibition Assay (MIC and FIC index, 96-well, resazurin). In kind it is cell-based. Particulars: Fusarium oxysporum, Compound B alone. An outline of the steps: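 Checkerboard dilutions of pesticidal active plus C6–C10 (or C11/C12) aliphatic acid in 96-well plates; growth scored by resazurin colour change, optionally visual.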

Assay [5] concerns Trichoplusia ni. The assay can be described thus: In-planta insecticidal efficacy on sprayed cabbage plants, Pylon® (chlorfenapyr) with unsaturated aliphatic acids (Colby synergy factor). In kind it is in vivo. Particulars: 0.06 mg/mL aliphatic acid (salt). As to the method: A stock solution was prepared for trans-2-hexenoic acid (available from Sigma-Aldrich, St. […] Green cabbage plants (Brassica oleracea var. capitate, Danish Ballhead cultivar) were grown from seed (available from West Coast Seeds, Delta, BC, Canada) in potting soil for 4 weeks in a pest-free indoor growing environment. At 4 weeks of age, each cabbage plant was sprayed with 10 mL of treatment solution using a hand pump sprayer bottle, and allowed to dry. […] The treated cabbage plants were then placed in nylon isolation tents and kept in an indoor growing environment and the larvae were left to feed on the plants. In one set of cabbage plants, the larvae were left to feed for 48 hours, and then the number of surviving larvae were observed and survival rates (%) were determined. In a second separate set of cabbage plants, the larvae were left to feed for 72 hours, and then the number of surviving larvae were observed and survival rates (%) were determined. Each experiment was repeated at least 3 times. […] In accordance with the Colby Formula, the expected efficacy, E (%), of a combination treatment of compounds A and B in concentrations a and b, respectively, can be determined by evaluating: […] The existence and extent of synergy present in a combination treatment can be determined according to the Colby Formula by evaluating a Synergy Factor, SF=(Observed efficacy)/(Expected efficacy).

The test system of assay [6] is Alternaria solani. As to the kind of experiment: Synergistic Growth Inhibition Assay (MIC and FIC index, 96-well, resazurin). It counts as cell-based. The following applies: Alternaria solani, […], Table 60; Compound B alone; 7 days incubation; read-out: MIC (B). An outline of the steps:
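Checkerboard assay in 96-well plates: serial dilutions of active ingredient combined with C6–C10 aliphatic acid, fungus pre-grown to exponential phase in potato dextrose broth. MIC per agent alone and in combination; FIC = combination concentration/MIC alone, FIC index = sum of both agents' FICs (1 = additive).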

The test system of assay [7] is Sclerotinia sclerotiorum. The description is as above. Particulars: Sclerotinia sclerotiorum, […], Compound B alone, 7 days incubation, read-out: MIC (B). In kind it is cell-based. Put shortly:
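Checkerboard of pesticidal active ingredient combined with C6–C10 (or C11/C12) aliphatic acids in serial dilutions against Sclerotinia sclerotiorum. Growth scored by resazurin colour change plus visual inspection; FIC index is the sum of each agent's concentration divided by its MIC alone, with 1 indicating additivity.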

`C/C=C/C=C/C(=O)[O-].[K+]` [(2E,4E)-2,4 hexadienoic acid, K-salt]: the “Observed Efficacy, W (%)” value in assay [1] is on record as 9.1%.
As for `CCCCCCCC(=O)[O-].[K+]` [Octanoic acid, K-salt], in assay [1], the “Observed Efficacy, W (%)” value is recorded as 0%.
Regarding `CCCCCCCC(=O)O` [Octanoic acid, octanoic acid], the MIC came out at 625 µg/mL in assay [2] (Table 58); 569 µg/mL in assay [4] (24 h, Table 7, 24 hour incubation, read-out: MIC(B)); 569 µg/mL in assay [4] (24 h, Table 9, 24 hour incubation, read-out: MIC (B)); 1140 µg/mL in assay [4] (Table 8, read-out: MIC (B)). Also, in assay [3], the “Observed Efficacy, W (%)” value worked out at 0%.
Take `CCCC=CCC(=O)O` [3-heptanoic acid]: the “Observed Efficacy, W (%)” value in assay [1] was 4.5%.
For the compound `CC=CC=CC(=O)[O-].[K+]` [2,4-hexadienoic acid, K-salt], the “Observed Efficacy (%)” value in assay [5] (after 48 hours) was determined as 13%; in assay [5] (after 72 hours), 0%.
Take `CCCCCCCC/C=C/C(=O)O` [Trans-2-undecenoic acid]: the MIC in assay [6] amounted to 156 µg/mL; in assay [2] (Table 43), 156 µg/mL; in assay [2] (Table 44) it was 78.1 µg/mL; in assay [2] (Table 45), 78.1 µg/mL; in assay [2] (Table 47) it was 78.1 µg/mL; in assay [2] (Table 48), 78.1 µg/mL. Further, the MIC in assay [2] (Table 49) amounted to 78.1 µg/mL; in assay [2] (Table 50) it was 39.1 µg/mL; in assay [2] (Table 56) it was 39.1 µg/mL; in assay [2] (Table 58) it was 156 µg/mL; in assay [7] (Table 33) it was 19.5 µg/mL; in assay [7] (Table 38) it was 39.1 µg/mL. Besides, the MIC turned out to be 39.1 µg/mL in assay [7] (Table 39); 39.1 µg/mL in assay [7] (Table 41); 156 µg/mL in assay [4] (48 h, Table 32, 48 hours incubation, read-out: MIC (B)).
